Columns and labels:
[1] = target: T1, Proteasome subunit beta type-1 (Homo sapiens, UniProt P20618); assay: Inhibition of PGPH activity of human 20S proteasome using (Z)-LLE-bNA as substrate by fluorometric method
T1 sequence (P20618 whole entry): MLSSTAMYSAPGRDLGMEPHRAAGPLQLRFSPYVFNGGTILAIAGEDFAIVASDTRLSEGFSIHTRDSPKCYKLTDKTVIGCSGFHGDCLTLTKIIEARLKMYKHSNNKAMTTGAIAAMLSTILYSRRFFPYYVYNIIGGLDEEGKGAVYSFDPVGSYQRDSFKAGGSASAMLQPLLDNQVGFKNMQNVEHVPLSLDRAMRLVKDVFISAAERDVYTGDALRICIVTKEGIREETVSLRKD

[2] = target: Proteasome subunit beta type-2 (Homo sapiens, UniProt P49721); assay: Inhibition of trypsin-like activity of human 20S proteasome using Bz-VGR-AMC as substrate by fluorometric method
Sequence of Proteasome subunit beta type-2 (P49721 whole entry): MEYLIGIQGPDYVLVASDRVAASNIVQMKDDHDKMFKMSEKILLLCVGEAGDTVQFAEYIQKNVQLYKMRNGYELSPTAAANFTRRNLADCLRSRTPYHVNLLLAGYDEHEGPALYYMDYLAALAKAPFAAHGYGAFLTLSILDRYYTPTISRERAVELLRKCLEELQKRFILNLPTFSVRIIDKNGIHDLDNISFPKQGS

| IC50 [1] | IC50 [2] | Structure (SMILES) |
| --- | --- | --- |
| 35 µM |  | CC[C@H](C)[C@H](NC(=S)Nc1cccc([N+](=O)[O-])c1)C(=O)N[C@H](Cc1ccccc1)C(=O)Nc1cccc(C(F)(F)F)c1 |
| 22.6 µM |  | CC[C@H](C)[C@H](/N=C(/Nc1cccc(C(F)(F)F)c1)SC)C(=O)N[C@H](Cc1ccccc1)C(=O)Nc1cccc(C(F)(F)F)c1 |
| 22.7 µM | > 50 µM | CC[C@H](C)[C@H](NC(=S)Nc1ccc(C(F)(F)F)cc1)C(=O)N[C@H](Cc1ccccc1)C(=O)Nc1cccc(Br)c1 |

Reference: BindingDB's records for doi:10.1016/j.ejmech.2016.11.024 (Guangxi Normal University, 2017)
